From article PMC12730222, “The Adaptable Binding Cleft of RmuAP1, a Pepsin-like Peptidase from Rhodotorula mucilaginosa, Enables the Enzyme to Degrade Immunogenic Peptides Derived from Gluten” (Biomolecules, 2025)
Non-standard residues stand in square brackets, D forms with d. Residues, ends and D or L forms follow the SMILES beside them. *: point of attachment. Sta = CC(C)C[C@H](N)[C@@H](O)CC(=O)O; Isovaleryl = CC(C)CC(=O)*

Molecular target: T1, RmuAP1 (Rhodotorula mucilaginosa, UniProt A0A9P6W3R0)
T1 construct: gene PEP1_2; mature catalytic domain (printed as 300 residues, though residue Ile304 is named), pre- and propeptide removed, C-terminal His6; secreted by Yarrowia lipolytica Po1g
T1 sequence (A0A9P6W3R0 96-425): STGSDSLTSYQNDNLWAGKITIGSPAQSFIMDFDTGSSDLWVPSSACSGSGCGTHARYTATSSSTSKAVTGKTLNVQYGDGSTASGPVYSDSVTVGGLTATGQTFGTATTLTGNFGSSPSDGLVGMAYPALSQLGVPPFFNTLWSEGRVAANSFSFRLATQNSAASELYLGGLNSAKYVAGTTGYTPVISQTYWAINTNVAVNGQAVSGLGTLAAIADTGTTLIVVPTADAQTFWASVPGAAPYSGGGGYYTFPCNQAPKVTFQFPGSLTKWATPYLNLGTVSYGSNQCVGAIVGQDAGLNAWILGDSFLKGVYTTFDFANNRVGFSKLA
Assay: X-ray crystal structure of the complex, […] Å
Format: binding
Settings: crystallised at pH 6.5, 2 M NaCl, 20 °C; active-site cleft, subsites S4 to S2'

CC(C)CC(=O)N[C@H](C(=O)N[C@H](C(=O)N[C@@H](CC(C)C)[C@@H](O)CC(=O)N[C@@H](C)C(=O)N[C@@H](CC(C)C)[C@@H](O)CC(=O)O)C(C)C)C(C)C [pepstatin A] (Isovaleryl-VV[Sta]A[Sta]-OH)
X-ray crystal structure of the complex, 1.78 Å: The crystal structure of the RmuAP1 complexed with pepstatin A was determined
